{"source": "patent US20170158776A1", "about": "“TREATMENT OF LUNG CANCER USING A COMBINATION OF AN ANTI-PD-1 ANTIBODY AND ANOTHER ANTI-CANCER AGENT” (Bristol-Myers Squibb Company, priority 2014, published 2017)", "key": {"[1]": {"tested_on": "heavily pretreated patients with advanced NSCLC", "experiment": "CA209-003 phase 1: nivolumab monotherapy, efficacy (RECIST 1.0, OS, subgroups, PD-L1)", "assay_type": "in vivo, human", "experimental": "Objective response rate (ORR) was analyzed according to select patient characteristics (age, gender, Eastern Cooperative Oncology Group performance status [ECOG PS], histology, number of prior therapies, prior tyrosine kinase inhibitor [TKI] therapy, epidermal growth factor receptor [EGFR] and Kirsten rat sarcoma viral oncogene homolog [KRAS] mutational status).\nPD-L1 expression in archived tumor samples was measured using the Dako immunohistochemistry (IHC) assay. Positive staining with this assay was defined as tumor membrane staining at any intensity, and was analyzed with cut-off values of 1% and 5% expression to assess PD-L1 positivity (Butte M J, et al.). Tumor PD-L1 expression was evaluated for potential association with clinical endpoints."}, "[2]": {"tested_on": "pts with advanced NSCLC after first-line PT-based chemotherapy", "experiment": "Phase 1: switch to nivolumab maintenance as monotherapy or with bevacizumab, efficacy (RECIST 1.1)", "assay_type": "in vivo, human", "experimental": "(§1) Pts with no progression within 42 days of completing ≧4 cycles first-line PT-based chemotherapy (±BEV) were assigned to either nivolumab (N) 5 mg/kg IV Q3W+BEV 15 mg/kg IV Q3W (non-squamous [non-sq] pts only; n=12) or N 3 mg/kg IV Q2W monotherapy (sq arm [n===8] or non-sq arm [n=13]) until progression/unacceptable toxicity (treatment beyond progression allowed based on protocol-defined criteria). ORR was evaluated using RECIST 1.1."}, "[3]": {"tested_on": "heavily pretreated patients with advanced NSCLC", "experiment": "CA209-003 phase 1: nivolumab monotherapy, safety"}, "[4]": {"tested_on": "pts with advanced NSCLC after first-line PT-based chemotherapy", "design": "species or system human", "settings": "in vivo", "experimental": "as §1"}}, "note": "Several values for one entry are separate records, joined by “and”; a condition that tells them apart may be missing. Identical values can stand only once. Entries after “also recorded” stand apart in the source; their conditions may differ. Marks after values point to notes of the source that are not given here.", "data": [{"substance": "nivolumab", "values": [{"measurement": "Median PFS", "setting": "[1]; All doses", "value": 2.3, "unit": "mo"}, {"measurement": "ORR", "setting": "[1]; All doses", "value": 17, "unit": "%"}, {"measurement": "OS Rate 1-year", "setting": "[1]; All doses", "value": 42, "unit": "%"}, {"measurement": "OS Rate 2-year", "setting": "[1]; All doses", "value": 24, "unit": "%"}, {"measurement": "Median OS (95% CI)", "setting": "[1]; Non-squamous, 1 mg/kg", "value": "9.9 (5.3, 22.5) mo"}, {"measurement": "ORR", "setting": "[1]; Non-squamous, 1 mg/kg", "value": "5.6 (1/18) % (n/N)"}, {"measurement": "OS Rate 1-year (95% CI)", "setting": "[1]; Non-squamous, 1 mg/kg", "value": "36 (15, 58)"}, {"measurement": "OS Rate 2-year (95% CI)", "setting": "[1]; Non-squamous, 1 mg/kg", "value": "15 (3, 36)"}, {"measurement": "Median OS (95% CI)", "setting": "[1]; Non-squamous, 3 mg/kg", "value": "18.2 (5.2, NE) mo"}, {"measurement": "ORR", "setting": "[1]; Non-squamous, 3 mg/kg", "value": "26.3 (5/19) % (n/N)"}, {"measurement": "OS Rate 1-year (95% CI)", "setting": "[1]; Non-squamous, 3 mg/kg", "value": "62 (37, 80)"}, {"measurement": "OS Rate 2-year (95% CI)", "setting": "[1]; Non-squamous, 3 mg/kg", "value": "48 (22, 69)"}, {"measurement": "Median OS (95% CI)", "setting": "[1]; Non-squamous, 10 mg/kg", "value": "7.4 (4.5, 12.4) mo"}, {"measurement": "ORR", "setting": "[1]; Non-squamous, 10 mg/kg", "value": "18.9 (7/37) % (n/N)"}, {"measurement": "OS Rate 1-year (95% CI)", "setting": "[1]; Non-squamous, 10 mg/kg", "value": "36 (21, 52)"}, {"measurement": "OS Rate 2-year (95% CI)", "setting": "[1]; Non-squamous, 10 mg/kg", "value": "15 (6, 29)"}, {"measurement": "Median OS (95% CI)", "setting": "[1]; Non-squamous, All doses", "value": "10.1 mo and 10.1 (5.7, 13.7) mo"}, {"measurement": "ORR", "setting": "[1]; Non-squamous, All doses", "value": "17.6 (13/74) % (n/N)"}, {"measurement": "OS Rate 1-year (95% CI)", "setting": "[1]; Non-squamous, All doses", "value": "43 (32, 54)"}, {"measurement": "OS Rate 2-year (95% CI)", "setting": "[1]; Non-squamous, All doses", "value": "23 (13, 34)"}, {"measurement": "ORR", "setting": "[1]; PD-L1+ (5% cut-off), Non-squamous", "value": "17 (3/18) % (n/N)"}, {"measurement": "ORR", "setting": "[1]; PD-L1+ (5% cut-off), Squamous", "value": "13 (2/15) % (n/N)"}, {"measurement": "Median OS", "setting": "[1]; PD-L1+ tumors", "value": 7.8, "unit": "months"}, {"measurement": "Median PFS", "setting": "[1]; PD-L1+ tumors", "value": 3.6, "unit": "months"}, {"measurement": "ORR", "setting": "[1]; PD-L1 cut-off 1%, Negative", "value": "17 (5/30) % (n/N)"}, {"measurement": "ORR", "setting": "[1]; PD-L1 cut-off 1%, Positive", "value": "13 (5/38) % (n/N)"}, {"measurement": "ORR", "setting": "[1]; PD-L1 cut-off 5%, Negative, all patients", "value": "14 (5/35) % (n/N)"}, {"measurement": "ORR", "setting": "[1]; PD-L1 cut-off 5%, Positive, all patients", "value": "15 (5/33) % (n/N)"}, {"measurement": "ORR", "setting": "[1]; PD-L1− (5% cut-off), Non-squamous", "value": "10 (2/21) % (n/N)"}, {"measurement": "ORR", "setting": "[1]; PD-L1− (5% cut-off), Squamous", "value": "21 (3/14) % (n/N)"}, {"measurement": "Median OS", "setting": "[1]; PD-L1− tumors", "value": 10.5, "unit": "months"}, {"measurement": "Median PFS", "setting": "[1]; PD-L1− tumors", "value": 1.8, "unit": "months"}, {"measurement": "Median OS (95% CI)", "setting": "[1]; Squamous, 1 mg/kg", "value": "8.0 (2.4, 13.3) mo"}, {"measurement": "ORR", "setting": "[1]; Squamous, 1 mg/kg", "value": "0 (0/15) % (n/N)"}, {"measurement": "OS Rate 1-year (95% CI)", "setting": "[1]; Squamous, 1 mg/kg", "value": "27 (7, 51)"}, {"measurement": "OS Rate 2-year (95% CI)", "setting": "[1]; Squamous, 1 mg/kg", "value": "9 (1, 32)"}, {"measurement": "Median OS (95% CI)", "setting": "[1]; Squamous, 3 mg/kg", "value": "9.5 (5.3, NE) mo"}, {"measurement": "ORR", "setting": "[1]; Squamous, 3 mg/kg", "value": "22.2 (4/18) % (n/N)"}, {"measurement": "OS Rate 1-year (95% CI)", "setting": "[1]; Squamous, 3 mg/kg", "value": "49 (23, 71)"}, {"measurement": "OS Rate 2-year (95% CI)", "setting": "[1]; Squamous, 3 mg/kg", "value": "41 (17, 64)"}, {"measurement": "Median OS (95% CI)", "setting": "[1]; Squamous, 10 mg/kg", "value": "10.5 (4.9, 16.7) mo"}, {"measurement": "ORR", "setting": "[1]; Squamous, 10 mg/kg", "value": "23.8 (5/21) % (n/N)"}, {"measurement": "OS Rate 1-year (95% CI)", "setting": "[1]; Squamous, 10 mg/kg", "value": "43 (22, 62)"}, {"measurement": "OS Rate 2-year (95% CI)", "setting": "[1]; Squamous, 10 mg/kg", "value": "22 (7, 42)"}, {"measurement": "Median OS (95% CI)", "setting": "[1]; Squamous, All doses", "value": "9.2 mo and 9.2 (7.3, 12.5) mo"}, {"measurement": "ORR", "setting": "[1]; Squamous, All doses", "value": "16.7 (9/54) % (n/N)"}, {"measurement": "OS Rate 1-year (95% CI)", "setting": "[1]; Squamous, All doses", "value": "40 (27, 54)"}, {"measurement": "OS Rate 2-year (95% CI)", "setting": "[1]; Squamous, All doses", "value": "24 (13, 37)"}, {"measurement": "patients maintaining SD for ≧48 weeks", "setting": "[1]; across doses", "value": 5, "unit": "%"}, {"measurement": "Stable disease as best overall response", "setting": "[2]; all pts of the treatment", "value": 48, "unit": "%"}, {"measurement": "Median PFS", "setting": "[2]; non-sq pts", "value": 21.4, "unit": "weeks"}, {"measurement": "Stable disease as best overall response", "setting": "[2]; non-sq pts", "value": 46, "unit": "%"}, {"measurement": "Median PFS", "setting": "[2]; sq pts", "value": 16.0, "unit": "weeks"}, {"measurement": "Stable disease as best overall response", "setting": "[2]; sq pts", "value": 50, "unit": "%"}, {"measurement": "Median OS", "setting": "[2]; switch maintenance", "value": "not reached"}, {"measurement": "ORR", "setting": "[2]; switch maintenance, RECIST 1.1", "value": 10, "unit": "%"}, {"measurement": "Patients with any treatment-related select AE, Any Grade", "setting": "[3]; N = 129", "value": "41 (53) % (n)"}, {"measurement": "Patients with any treatment-related select AE, Grade 3-4", "setting": "[3]; N = 129", "value": "5 (6) % (n)"}, {"measurement": "select AE Endocrinopathies, Any Grade", "setting": "[3]; N = 129", "value": "6 (8) % (n)"}, {"measurement": "select AE Endocrinopathies, Grade 3-4", "setting": "[3]; N = 129", "value": "0 % (n)"}, {"measurement": "select AE Gastrointestinal, Any Grade", "setting": "[3]; N = 129", "value": "12 (15) % (n)"}, {"measurement": "select AE Gastrointestinal, Grade 3-4", "setting": "[3]; N = 129", "value": "1 (1) % (n)"}, {"measurement": "select AE Hepatic, Any Grade", "setting": "[3]; N = 129", "value": "5 (6) % (n)"}, {"measurement": "select AE Hepatic, Grade 3-4", "setting": "[3]; N = 129", "value": "1 (1) % (n)"}, {"measurement": "select AE Infusion reaction, Any Grade", "setting": "[3]; N = 129", "value": "4 (5) % (n)"}, {"measurement": "select AE Infusion reaction, Grade 3-4", "setting": "[3]; N = 129", "value": "1 (1) % (n)"}, {"measurement": "select AE Pulmonary, Any Grade", "setting": "[3]; N = 129", "value": "7 (9)^c % (n)"}, {"measurement": "select AE Pulmonary, Grade 3-4", "setting": "[3]; N = 129", "value": "2 (3) % (n)"}, {"measurement": "select AE Renal, Any Grade", "setting": "[3]; N = 129", "value": "3(4) % (n)"}, {"measurement": "select AE Renal, Grade 3-4", "setting": "[3]; N = 129", "value": "0 % (n)"}, {"measurement": "select AE Skin, Any Grade", "setting": "[3]; N = 129", "value": "16 (20) % (n)"}, {"measurement": "select AE Skin, Grade 3-4", "setting": "[3]; N = 129", "value": "0 % (n)"}, {"measurement": "decreased appetite", "setting": "[3]; NSCLC cohort", "value": 12, "unit": "%"}, {"measurement": "diarrhea", "setting": "[3]; NSCLC cohort", "value": 10, "unit": "%"}, {"measurement": "fatigue", "setting": "[3]; NSCLC cohort", "value": 24, "unit": "%"}, {"measurement": "Rate of grade 3-4 treatment-related AEs", "setting": "[3]; NSCLC cohort (n = 129)", "value": 14, "unit": "%"}, {"measurement": "patients with grade 3-5 treatment-related pneumonitis", "setting": "[3]; NSCLC cohort, 4 patients", "value": 3, "unit": "%"}, {"measurement": "patients with treatment-related pulmonary events", "setting": "[3]; NSCLC cohort, 12 patients", "value": 9, "unit": "%"}, {"measurement": "treatment-related deaths", "setting": "[3]; all associated with pneumonitis", "value": "Three"}, {"measurement": "Rate of grade 3-4 treatment-related AEs", "setting": "[3]; overall study patient population (N = 306)", "value": 17, "unit": "%"}, {"measurement": "maximum tolerated dose", "setting": "[3]; up to 10 mg/kg every two weeks", "value": "without reaching the maximum tolerated does (MTD); also recorded: A maximum tolerated dose was not reached"}, {"measurement": "Any-grade treatment-related adverse events", "setting": "[4]", "value": 62, "unit": "%"}, {"measurement": "grade 3 pleural effusion", "setting": "[4]", "value": 1, "unit": "n"}, {"measurement": "grade 3 pneumonitis", "setting": "[4]", "value": 2, "unit": "n"}, {"measurement": "pts discontinued due to treatment-related AEs", "setting": "[4]", "value": "Four"}, {"measurement": "treatment-related grade 4 AEs", "setting": "[4]", "value": "No treatment-related grade 4 AEs were reported"}]}]}
